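At the GI50, growth is halved. TGI denotes the concentration required for complete inhibition of growth.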
Experiments:
Experiment in all cases: DTP human tumour cell line panel, 384-well format
786-0 renal = tested on: 786-0 renal
A498 renal = tested on: A498 renal
A549 NSCLC = tested on: A549 NSCLC
ACHN renal = tested on: ACHN renal
BT-549 breast = tested on: BT-549 breast
CAKI-1 renal = tested on: CAKI-1 renal
COLO 205 colon = tested on: COLO 205 colon
DU-145 prostate = tested on: DU-145 prostate
EKVX NSCLC = tested on: EKVX NSCLC
HCT-116 colon = tested on: HCT-116 colon
HCT-15 colon = tested on: HCT-15 colon
HL-60(TB) leukemia = tested on: HL-60(TB) leukemia
HOP-62 NSCLC = tested on: HOP-62 NSCLC
HOP-92 NSCLC = tested on: HOP-92 NSCLC
HS 578T breast = tested on: HS 578T breast
HT29 colon = tested on: HT29 colon
IGROV1 ovarian = tested on: IGROV1 ovarian
K-562 leukemia = tested on: K-562 leukemia
KM12 colon = tested on: KM12 colon
M14 melanoma = tested on: M14 melanoma
MALME-3M melanoma = tested on: MALME-3M melanoma
MCF7 breast = tested on: MCF7 breast
MDA-MB-231 breast = tested on: MDA-MB-231 breast
MDA-MB-435 melanoma = tested on: MDA-MB-435 melanoma
MDA-MB-468 breast = tested on: MDA-MB-468 breast
MOLT-4 leukemia = tested on: MOLT-4 leukemia
NCI-H226 lung = tested on: NCI-H226 lung
NCI-H23 lung = tested on: NCI-H23 lung
NCI-H322M lung = tested on: NCI-H322M lung
NCI-H522 lung = tested on: NCI-H522 lung
OVCAR-3 ovarian = tested on: OVCAR-3 ovarian
OVCAR-4 ovarian = tested on: OVCAR-4 ovarian
OVCAR-5 ovarian = tested on: OVCAR-5 ovarian
OVCAR-8 ovarian = tested on: OVCAR-8 ovarian
PC-3 prostate = tested on: PC-3 prostate
RXF 393 renal = tested on: RXF 393 renal
SF-268 CNS = tested on: SF-268 CNS
SF-295 CNS = tested on: SF-295 CNS
SF-539 CNS = tested on: SF-539 CNS
SK-MEL-2 melanoma = tested on: SK-MEL-2 melanoma
SK-MEL-28 melanoma = tested on: SK-MEL-28 melanoma
SK-MEL-5 melanoma = tested on: SK-MEL-5 melanoma
SK-OV-3 ovarian = tested on: SK-OV-3 ovarian
SN12C renal = tested on: SN12C renal
SNB-19 CNS = tested on: SNB-19 CNS
SNB-75 CNS = tested on: SNB-75 CNS
SR leukemia = tested on: SR leukemia
SW-620 colon = tested on: SW-620 colon
T-47D breast = tested on: T-47D breast
TK-10 renal = tested on: TK-10 renal
U251 glioblastoma = tested on: U251 glioblastoma
UACC-257 melanoma = tested on: UACC-257 melanoma
UACC-62 melanoma = tested on: UACC-62 melanoma
UO-31 renal = tested on: UO-31 renal

O=C(NCCc1ccccc1)C(c1csc2ccccc12)N(C(=O)CCl)c1ccc(-c2cnco2)cc1 (configuration not stated)
GI50 ([…]-0 renal): 0.0165 µM | TGI (786-0 renal): 0.0332 µM | GI50 (A498 renal): 0.104 µM | TGI (A498 renal): 0.222 µM | GI50 (A549 NSCLC): 0.263 µM | TGI (A549 NSCLC): 1.58 µM | GI50 (ACHN renal): 0.016 µM | TGI (ACHN renal): 0.03 µM | GI50 (BT-549 breast): 0.0376 µM | TGI (BT-549 breast): 0.131 µM | GI50 (CAKI-1 renal): < 0.01 µM | TGI (CAKI-1 renal): 0.019 µM | GI50 (COLO 205 colon): 1.46 µM | TGI (COLO 205 colon): 2.78 µM | GI50 (DU-145 prostate): 0.062 µM | TGI (DU-145 prostate): 1.4 µM | GI50 (EKVX NSCLC): 0.0157 µM | TGI (EKVX NSCLC): 0.0321 µM | GI50 (HCT-116 colon): 0.287 µM | TGI (HCT-116 colon): 1.03 µM | GI50 (HCT-15 colon): 0.0776 µM | TGI (HCT-15 colon): 0.216 µM | GI50 (HL-60(TB) leukemia): 0.0214 µM | TGI (HL-60(TB) leukemia): 0.0364 µM | GI50 (HOP-62 NSCLC): 0.0237 µM | TGI (HOP-62 NSCLC): 0.0684 µM | GI50 (HOP-92 NSCLC): 0.0169 µM | TGI (HOP-92 NSCLC): 0.0311 µM | GI50 (HS 578T breast): 0.113 µM | TGI (HS 578T breast): 0.238 µM | GI50 (HT29 colon): 0.127 µM | TGI (HT29 colon): 0.273 µM | GI50 (IGROV1 ovarian): 0.0182 µM | TGI (IGROV1 ovarian): 0.034 µM | GI50 (K-562 leukemia): 0.0784 µM | TGI (K-562 leukemia): 0.212 µM | GI50 (KM12 colon): 0.483 µM | TGI (KM12 colon): 1.64 µM | GI50 (M14 melanoma): 0.138 µM | TGI (M14 melanoma): 0.288 µM | GI50 (MALME-3M melanoma): 0.0564 µM | TGI (MALME-3M melanoma): 0.18 µM | GI50 (MCF7 breast): 0.342 µM | TGI (MCF7 breast): 1.48 µM | GI50 (MDA-MB-231 breast): 0.0199 µM | TGI (MDA-MB-231 breast): 0.0433 µM | GI50 (MDA-MB-435 melanoma): 0.432 µM | TGI (MDA-MB-435 melanoma): 1.68 µM | GI50 (MDA-MB-468 breast): 0.0215 µM | TGI (MDA-MB-468 breast): 0.0881 µM | GI50 (MOLT-4 leukemia): 0.0202 µM | TGI (MOLT-4 leukemia): 0.0364 µM | GI50 (NCI-H226 lung): 0.193 µM | TGI (NCI-H226 lung): 0.724 µM | GI50 (NCI-H23 lung): 0.0165 µM | TGI (NCI-H23 lung): 0.035 µM | GI50 (NCI-H322M lung): 1.68 µM | TGI (NCI-H322M lung): 3.05 µM | GI50 (NCI-H522 lung): < 0.01 µM | TGI (NCI-H522 lung): 0.0151 µM | GI50 (OVCAR-3 ovarian): 0.145 µM | TGI (OVCAR-3 ovarian): 0.314 µM | GI50 (OVCAR-4 ovarian): 0.0168 µM | TGI (OVCAR-4 ovarian): 0.0308 µM | GI50 (OVCAR-5 ovarian): 0.349 µM | TGI (OVCAR-5 ovarian): 1.31 µM | GI50 (OVCAR-8 ovarian): 0.0196 µM | TGI (OVCAR-8 ovarian): 0.0566 µM | GI50 (PC-3 prostate): 0.11 µM | TGI (PC-3 prostate): 0.245 µM | GI50 (RXF 393 renal): 0.0108 µM | TGI (RXF 393 renal): 0.0232 µM | GI50 (SF-268 CNS): 0.0703 µM | TGI (SF-268 CNS): 0.198 µM | GI50 (SF-295 CNS): 0.131 µM | TGI (SF-295 CNS): 0.261 µM | GI50 (SF-539 CNS): 0.0165 µM | TGI (SF-539 CNS): 0.0349 µM | GI50 (SK-MEL-2 melanoma): 0.0297 µM | TGI (SK-MEL-2 melanoma): 0.102 µM | GI50 (SK-MEL-28 melanoma): 1.43 µM | TGI (SK-MEL-28 melanoma): 2.74 µM | GI50 (SK-MEL-5 melanoma): 0.358 µM | TGI (SK-MEL-5 melanoma): 1.68 µM | GI50 (SK-OV-3 ovarian): 0.197 µM | TGI (SK-OV-3 ovarian): 0.394 µM | GI50 (SN12C renal): 1.04 µM | TGI (SN12C renal): 2.22 µM | GI50 (SNB-19 CNS): 1.76 µM | TGI (SNB-19 CNS): 3.16 µM | GI50 (SNB-75 CNS): 0.0191 µM | TGI (SNB-75 CNS): 0.038 µM | GI50 (SR leukemia): 0.0176 µM | TGI (SR leukemia): 0.0319 µM | GI50 (SW-620 colon): 0.151 µM | TGI (SW-620 colon): 0.289 µM | GI50 (T-47D breast): 0.0377 µM | TGI (T-47D breast): 0.148 µM | GI50 (TK-10 renal): 0.0186 µM | TGI (TK-10 renal): 0.0364 µM | GI50 (U251 glioblastoma): 0.101 µM | TGI (U251 glioblastoma): 0.239 µM | GI50 (UACC-257 melanoma): 0.121 µM | TGI (UACC-257 melanoma): 0.412 µM | GI50 (UACC-62 melanoma): 0.018 µM | TGI (UACC-62 melanoma): 0.034 µM | GI50 (UO-31 renal): < 0.01 µM

Source: PubChem BioAssay (NCI)
